According to patent publication US9649313B2, “Use of ITK inhibitors for the treatment of cancer” (The University of North Carolina at Chapel Hill, priority 2012, dated 2017):

How the values were obtained:
[1] = target: T1, ABL (Homo sapiens, UniProt P00519); assay: cell-free kinase assay; type: biochemical
T1 construct: purchased Carna Biosciences
Description: (§1) We investigated the potency and selectivity of BI 10N against 56 kinases using a cell-free assay (Table 8A). […] The selectivity of this inhibitor was investigated by testing the potency of the inhibitor at two concentrations with 53 kinases by Carna Biosciences (MA) (Table 2).

[2] = target: T2, FGFR1 (Homo sapiens, UniProt P11362); assay: cell-free kinase assay; type: biochemical
T2 construct: purchased Carna Biosciences
Description: as §1

[3] = target: T3, FYN (Homo sapiens, UniProt P06241); assay: cell-free kinase assay; type: biochemical; details: Table 2, by Carna Biosciences
T3 construct: purchased Carna Biosciences
Description: as §1

[4] = target: T4, IGF1R (Homo sapiens, UniProt P08069); assay: cell-free kinase assay; type: biochemical
T4 construct: purchased Carna Biosciences
Description: as §1

[5] = target: T5, LCK (Homo sapiens, UniProt P06239); assay: cell-free kinase assay; type: biochemical
T5 construct: purchased Carna Biosciences
Description: as §1

[6] = target: T6, TRKA (Homo sapiens, UniProt P04629); assay: cell-free kinase assay; type: biochemical
T6 construct: purchased Carna Biosciences
Description: as §1

[7] = target: T7, TRKC (Homo sapiens, UniProt Q16288); assay: cell-free kinase assay; type: biochemical
T7 construct: purchased Carna Biosciences
Description: as §1

[8] = test system: A375 (ITKINT) melanoma cell line; assay: single cell motility assay; type: cell-based, Human
Procedure: (§2) FIG. 5A-5C. Effects of BI 10N inhibitor on proliferation and motility of melanoma cells. FIG. 5A) Cell motility assays were performed as described in FIG. 4A-4E; however, the inhibitor BI 10N was added to the media to decrease ITK kinase activity in parental cell lines instead of using the shRNA ITK knockdown cell lines. BI 10N was added to the media 24 hours prior to the start of the motility assay and the VivaView camera system was used to image cellular motility of the melanoma cells as described previously. FIG. 5B) The proliferation assays were completed as described in FIG. 4A-4E, substituting the BI 10N compound for the shRNA. Cells were trypsinized and counted using the Invitrogen Countess. Fifty thousand cells were placed into each well of a 6 well plate and BI 10N was added to the indicated concentrations. The cells were counted with the Invitrogen Countess at 3, 5, and 6 or 7 days after plating to assess the proliferation rates of the different cell lines in the presence of BI 10N. FIG. 5C) Both ITKHI (RPMI 8322) and ITKLO (PMWK) melanoma cell lines were grown in the presence of BI 10N (10-200 nM) in soft agar. In 24-well cell culture plates 2,500 cells per well were added to a 1.4% agarose solution. The agarose and cell solution was then poured on top of a solidified base agar. The cells were incubated at 37° C. for three to four weeks to ensure adequate growth before analysis. FIG. 5D) Cell cycle analysis of PMWK, VMM 39, and RPMI 8322 cells that have been treated with increasing concentrations of BI 10N. Following 3 days of BI 10N treatment, the cells were incubated with EdU for 3 hours and were subsequently assessed for 5-ethynyl-2′-deoxyuridine (EdU) incorporation rate and DNA content with FxCycle Violet. Shown in this panel are the percentages of cells in G0/G1 (low DNA and EdU content), S (high EdU and low-to-medium DNA content), and G2/M (Low EdU and high DNA content)
(§3) Single cell tracking was performed as described (Williams et al., 2012 Circ Res 111(1):56-65). Briefly melanoma cells were plated on 5 μg/cm2 collagen coated MatTek dishes (MatTek Corp., Ashland, Mass. part #P35G-1.5-10-C) and allowed to attach for 24 hours in the presence of either DMSO (1:1000) or BI 10N in DMSO. Cells were monitored for 16 hours using the Olympus VivaView live cell imaging microscope system. Images were taken at a magnification of 10× and were converted to stacks using Image J software. Single-cells were tracked using Image J manual tracking software and velocities were obtained.

[9] = test system: SKMEL 103 (ITKINT) melanoma cell line; assay: single cell motility assay; type: cell-based, Human
Procedure: as §2, §3

[10] = test system: SKMEL 131 (ITKLO) melanoma cell line; assay: single cell motility assay; type: cell-based, Human
Procedure: as §2, §3

[11] = test system: SKMEL 153 (ITKHI) melanoma cell line; assay: single cell motility assay; type: cell-based, Human; details: 10-25 nM
Procedure: as §2, §3

[12] = test system: PMWK (ITKLO) cell line; assay: soft agar assay (anchorage independent growth); type: cell-based, Human
Procedure: as §2
(§4) Soft agar assays were performed employing the RPMI 8322, VMM 39, PMWK, and A375 cell lines. In 24-well cell culture plates (BD Falcon), a 2.0% base agar solution in the appropriate cell line media was poured and allowed to solidify. Tissue culture cells were then trypsinized from their flask, counted using the Countess® Automated Cell Counter, and 2,500 cells per well were added to a 1.4% agarose solution then poured on top of the solidified base agar. Each of the […] layers in the culture plate wells contained BI 10N in the indicated concentrations. The cells were incubated at 37° C. for three to four weeks to ensure adequate growth. 3-(4,5-dimethylthiazol-2-yl)-2,5-diphenyltetrazolium bromide (MTT) was then added in order to perform colony counts using Image J photo processing software.

[13] = test system: RPMI 8322 (ITKHI) cell line; assay: soft agar assay (anchorage independent growth); type: cell-based, Human
Procedure: as §2, §4

[14] = test system: PMWK (ITKLO) cells; assay: cell cycle analysis (EdU, FxCycle Violet); type: cell-based, Human; details: 3 days of treatment
Procedure: as §2
(§5) Melanoma cells were grown to approximately 60% confluence in T25 tissue culture flasks (Corning Product #430639). […]

[15] = test system: RPMI 8322 (ITKHI) cells; assay: cell cycle analysis (EdU, FxCycle Violet); type: cell-based, Human; details: 3 days of treatment, dose-dependent
Procedure: as §2, §5

[16] = test system: VMM 39 (ITKHI) cells; assay: cell cycle analysis (EdU, FxCycle Violet); type: cell-based, Human; details: 3 days of treatment, dose-dependent
Procedure: as §2, §5

[17] = Homo sapiens, 672 h, three to four weeks, read-out: amount needed to decrease the number of colonies formed by 50%

T6 sequence (P04629 33-796): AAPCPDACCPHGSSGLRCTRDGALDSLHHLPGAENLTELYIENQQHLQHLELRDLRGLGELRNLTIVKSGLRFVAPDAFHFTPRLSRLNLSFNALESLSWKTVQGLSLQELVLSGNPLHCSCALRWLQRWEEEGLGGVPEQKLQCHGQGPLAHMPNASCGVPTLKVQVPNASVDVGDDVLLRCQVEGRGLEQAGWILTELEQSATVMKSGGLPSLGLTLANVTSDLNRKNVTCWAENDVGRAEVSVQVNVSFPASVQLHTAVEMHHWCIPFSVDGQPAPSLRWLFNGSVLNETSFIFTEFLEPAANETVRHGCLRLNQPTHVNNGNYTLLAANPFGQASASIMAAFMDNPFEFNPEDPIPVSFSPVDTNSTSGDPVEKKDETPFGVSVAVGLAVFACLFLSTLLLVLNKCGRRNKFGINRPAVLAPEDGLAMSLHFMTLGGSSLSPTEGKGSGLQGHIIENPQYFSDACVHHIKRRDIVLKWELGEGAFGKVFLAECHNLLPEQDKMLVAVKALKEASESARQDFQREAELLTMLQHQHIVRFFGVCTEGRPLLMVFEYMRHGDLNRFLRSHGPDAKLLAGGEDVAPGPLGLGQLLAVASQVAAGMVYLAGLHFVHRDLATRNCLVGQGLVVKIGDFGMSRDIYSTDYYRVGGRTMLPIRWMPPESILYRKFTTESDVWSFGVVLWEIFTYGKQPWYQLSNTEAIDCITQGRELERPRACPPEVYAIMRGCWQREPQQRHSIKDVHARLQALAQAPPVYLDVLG
T2 sequence (P11362 22-822): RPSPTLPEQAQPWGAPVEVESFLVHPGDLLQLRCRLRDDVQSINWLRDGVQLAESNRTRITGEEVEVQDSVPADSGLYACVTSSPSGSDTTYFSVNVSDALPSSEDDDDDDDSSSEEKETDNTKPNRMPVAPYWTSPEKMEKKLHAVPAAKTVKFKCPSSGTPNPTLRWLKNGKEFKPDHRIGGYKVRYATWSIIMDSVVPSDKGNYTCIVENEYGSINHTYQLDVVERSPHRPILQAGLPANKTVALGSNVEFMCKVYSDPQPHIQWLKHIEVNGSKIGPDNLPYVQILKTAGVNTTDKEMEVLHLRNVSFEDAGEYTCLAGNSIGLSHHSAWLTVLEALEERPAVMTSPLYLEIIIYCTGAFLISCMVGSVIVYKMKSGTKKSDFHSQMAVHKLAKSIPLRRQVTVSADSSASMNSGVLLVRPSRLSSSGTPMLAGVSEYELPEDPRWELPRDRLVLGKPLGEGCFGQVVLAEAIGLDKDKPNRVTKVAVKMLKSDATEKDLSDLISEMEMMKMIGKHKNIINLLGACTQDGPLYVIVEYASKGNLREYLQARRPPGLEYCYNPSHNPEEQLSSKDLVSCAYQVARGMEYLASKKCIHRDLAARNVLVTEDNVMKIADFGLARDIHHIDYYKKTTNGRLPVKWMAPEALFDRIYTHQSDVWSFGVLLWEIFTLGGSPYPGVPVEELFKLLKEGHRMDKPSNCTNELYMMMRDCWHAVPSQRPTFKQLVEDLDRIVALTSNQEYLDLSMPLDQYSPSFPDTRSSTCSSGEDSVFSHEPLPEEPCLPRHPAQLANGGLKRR
T4 sequence (P08069 31-1367): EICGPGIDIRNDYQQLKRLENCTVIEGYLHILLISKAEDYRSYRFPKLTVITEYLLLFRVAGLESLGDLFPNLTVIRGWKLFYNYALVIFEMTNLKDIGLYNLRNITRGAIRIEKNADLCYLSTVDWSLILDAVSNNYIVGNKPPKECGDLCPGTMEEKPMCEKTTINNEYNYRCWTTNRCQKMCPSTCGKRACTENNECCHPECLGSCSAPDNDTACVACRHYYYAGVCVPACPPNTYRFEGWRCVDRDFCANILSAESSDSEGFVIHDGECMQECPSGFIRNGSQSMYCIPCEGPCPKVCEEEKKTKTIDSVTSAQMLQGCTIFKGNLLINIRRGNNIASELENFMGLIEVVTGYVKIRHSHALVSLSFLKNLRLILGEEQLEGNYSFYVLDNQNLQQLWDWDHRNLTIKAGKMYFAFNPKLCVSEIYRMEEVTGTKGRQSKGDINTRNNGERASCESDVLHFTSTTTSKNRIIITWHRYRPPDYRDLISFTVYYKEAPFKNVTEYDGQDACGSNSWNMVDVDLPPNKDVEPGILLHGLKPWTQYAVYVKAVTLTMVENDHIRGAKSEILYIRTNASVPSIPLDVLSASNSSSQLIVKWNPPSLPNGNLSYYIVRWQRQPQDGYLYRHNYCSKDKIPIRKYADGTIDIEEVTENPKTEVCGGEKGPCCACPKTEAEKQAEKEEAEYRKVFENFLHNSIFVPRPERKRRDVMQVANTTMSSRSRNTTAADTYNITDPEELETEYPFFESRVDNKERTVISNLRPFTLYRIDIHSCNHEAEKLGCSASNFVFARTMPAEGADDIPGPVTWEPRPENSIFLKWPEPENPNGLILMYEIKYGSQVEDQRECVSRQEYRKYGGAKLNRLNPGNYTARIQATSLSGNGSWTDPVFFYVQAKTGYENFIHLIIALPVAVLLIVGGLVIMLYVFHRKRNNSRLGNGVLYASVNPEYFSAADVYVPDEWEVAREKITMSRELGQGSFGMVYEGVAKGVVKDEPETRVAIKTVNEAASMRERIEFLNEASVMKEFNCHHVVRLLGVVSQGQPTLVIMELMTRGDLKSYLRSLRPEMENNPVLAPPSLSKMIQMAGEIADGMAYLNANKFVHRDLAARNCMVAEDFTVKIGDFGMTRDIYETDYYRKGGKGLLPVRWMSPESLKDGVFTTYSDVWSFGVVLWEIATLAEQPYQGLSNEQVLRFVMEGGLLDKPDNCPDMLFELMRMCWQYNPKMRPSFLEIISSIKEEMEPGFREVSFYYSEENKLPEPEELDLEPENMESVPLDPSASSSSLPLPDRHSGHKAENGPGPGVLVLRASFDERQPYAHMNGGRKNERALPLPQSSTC
T1 sequence (P00519 whole entry): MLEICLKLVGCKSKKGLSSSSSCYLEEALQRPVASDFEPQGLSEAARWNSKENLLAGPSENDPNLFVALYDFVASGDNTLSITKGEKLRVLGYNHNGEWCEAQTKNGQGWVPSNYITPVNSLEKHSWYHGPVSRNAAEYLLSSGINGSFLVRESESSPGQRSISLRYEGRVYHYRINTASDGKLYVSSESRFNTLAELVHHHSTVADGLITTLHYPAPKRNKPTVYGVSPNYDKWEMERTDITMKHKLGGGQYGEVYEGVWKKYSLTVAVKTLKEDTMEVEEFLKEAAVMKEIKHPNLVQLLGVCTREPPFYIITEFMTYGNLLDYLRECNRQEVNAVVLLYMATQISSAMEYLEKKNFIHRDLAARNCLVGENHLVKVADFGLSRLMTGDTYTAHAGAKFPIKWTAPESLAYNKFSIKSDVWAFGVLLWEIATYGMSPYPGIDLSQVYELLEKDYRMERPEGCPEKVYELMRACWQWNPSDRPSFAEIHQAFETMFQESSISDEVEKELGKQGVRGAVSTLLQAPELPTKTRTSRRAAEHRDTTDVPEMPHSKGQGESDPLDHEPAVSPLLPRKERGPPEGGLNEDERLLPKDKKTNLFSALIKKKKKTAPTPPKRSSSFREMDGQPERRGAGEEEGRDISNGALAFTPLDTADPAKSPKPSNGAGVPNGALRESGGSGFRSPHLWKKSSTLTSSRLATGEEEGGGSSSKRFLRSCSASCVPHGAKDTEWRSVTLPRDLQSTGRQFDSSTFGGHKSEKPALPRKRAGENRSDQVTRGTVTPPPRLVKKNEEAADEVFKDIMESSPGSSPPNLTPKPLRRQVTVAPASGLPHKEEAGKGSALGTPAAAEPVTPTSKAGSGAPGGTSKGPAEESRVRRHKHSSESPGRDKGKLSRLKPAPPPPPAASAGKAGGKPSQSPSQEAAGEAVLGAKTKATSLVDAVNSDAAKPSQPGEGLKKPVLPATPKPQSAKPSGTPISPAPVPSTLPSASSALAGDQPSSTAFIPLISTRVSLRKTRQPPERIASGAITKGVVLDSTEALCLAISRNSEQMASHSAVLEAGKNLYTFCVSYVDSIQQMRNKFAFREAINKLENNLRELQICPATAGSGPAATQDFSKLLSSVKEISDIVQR
T5 sequence (P06239 whole entry): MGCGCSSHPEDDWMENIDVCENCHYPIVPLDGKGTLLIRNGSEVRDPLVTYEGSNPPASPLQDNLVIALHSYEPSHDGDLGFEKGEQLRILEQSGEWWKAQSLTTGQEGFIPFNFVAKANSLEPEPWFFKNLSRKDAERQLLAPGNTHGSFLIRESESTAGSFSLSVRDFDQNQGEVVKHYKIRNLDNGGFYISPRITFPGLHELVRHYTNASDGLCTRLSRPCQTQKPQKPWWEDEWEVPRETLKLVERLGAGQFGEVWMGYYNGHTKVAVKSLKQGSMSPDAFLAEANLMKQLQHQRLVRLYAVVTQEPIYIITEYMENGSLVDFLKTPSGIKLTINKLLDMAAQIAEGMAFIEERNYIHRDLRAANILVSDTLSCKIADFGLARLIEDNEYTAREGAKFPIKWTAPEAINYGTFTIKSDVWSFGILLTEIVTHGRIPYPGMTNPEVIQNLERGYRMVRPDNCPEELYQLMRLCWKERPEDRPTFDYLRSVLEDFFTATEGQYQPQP
T3 sequence (P06241 whole entry): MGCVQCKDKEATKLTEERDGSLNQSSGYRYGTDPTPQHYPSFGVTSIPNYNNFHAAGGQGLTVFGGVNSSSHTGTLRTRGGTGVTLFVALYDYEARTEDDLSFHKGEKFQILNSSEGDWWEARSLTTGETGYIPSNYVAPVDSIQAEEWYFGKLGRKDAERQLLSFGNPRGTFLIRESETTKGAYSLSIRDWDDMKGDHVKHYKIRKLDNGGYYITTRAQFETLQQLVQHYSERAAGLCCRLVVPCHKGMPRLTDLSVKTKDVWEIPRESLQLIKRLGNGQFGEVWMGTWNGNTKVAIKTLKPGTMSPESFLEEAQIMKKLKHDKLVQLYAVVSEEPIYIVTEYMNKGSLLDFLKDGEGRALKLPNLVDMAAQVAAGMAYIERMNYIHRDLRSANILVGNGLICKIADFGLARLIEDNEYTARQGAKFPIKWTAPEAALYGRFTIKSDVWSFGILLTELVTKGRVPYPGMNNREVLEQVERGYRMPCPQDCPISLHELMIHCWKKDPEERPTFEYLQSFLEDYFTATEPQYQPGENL

In the case of `CC(C)C(C)CNCc1ccc2c(c1)[nH]/c(=N\C(=O)c1ccc(C3=CN=NC3)s1)n2CC(C)(C)O` (stereo not shown) [BI 10N], the IC50 ([1]; Table 2, by Carna Biosciences) is reported as 23.5 nM, the inhibition at 0.2 µM ([1]; single inhibitor concentration) is reported as 91.9% and the IC50 ([2]; Table 2, by Carna Biosciences) is reported as 59.7 nM. It also gave an inhibition at 0.2 µM ([2]; single inhibitor concentration) of 80.2%, an IC50 [3] of 24.2 nM and an IC50 ([4]; Table 2, by Carna Biosciences) of 886 nM. It also gave an inhibition at 0.2 µM ([4]; single inhibitor concentration) of 19%, an IC50 ([5]; Table 2, by Carna Biosciences) of 10.6 nM and an inhibition at 0.2 µM ([5]; single inhibitor concentration) of 96.7%. The “selectivity for ITK over TRKA” value [6] was “about 10 fold”, the mode of inhibition ([6]; TRKA) was “time-dependent inhibitor” and the IC50 ([6]; TRKA, 1 mM ATP, Km ATP 65 μM) was 0.828 nM. For the same compound, the IC50 ([6]; TRKA, ATP at approximately the Km for ATP, more potent than can be measured) was under 0.5 nM, the IC50 ([6]; TRKA, Table 2, by Carna Biosciences) was 0.459 nM and the inhibition at 0.2 µM ([6]; TRKA, single inhibitor concentration) was 106%. For the same compound, the IC50 [7] was 1.58 nM, the “selectivity for ITK over TRKC” value [7] was “about 10 fold” and the “concentration required for smaller changes in migration” value [8] was at least 150 nM. The effect on migration ([8]; 10-25 nM) was “unaffected”, the “concentration required for smaller changes in migration” value [9] was at least 150 nM and the effect on migration ([9]; 10-25 nM) was “unaffected”. For the same compound, the “concentration required for smaller changes in migration” value [10] was at least 150 nM, the effect on migration ([10]; 10-25 nM) was “do not decrease” and the decrease in migration [11] was “about 50%”. The anchorage-independent growth [12] was “strongly decreased”, the IC50 [12, 17] was 25 nM and the anchorage-independent growth [13] was “strongly decreased”. The IC50 [13, 17] was 50 nM, the cell cycle profile [14] was “No cell cycle changes” and the cell cycle profile [15] was “increased the percentage of cells in the G0/G1 phase and decreased the percentage of cells in the S phase”. For the same compound, the cell cycle profile [16] was “increased the percentage of cells in the G0/G1 phase and decreased the percentage of cells in the S phase”.
